The nature of series [1]: physchem. Particulars: buffer, pH 7.4.
The next series in a line: in vitro. Particulars: PAMPA, pH 7.4.
A short description of series [2]: physchem. Particulars: buffer, pH 2.
The test system of another series is K562. The series is described as follows: cells. Particulars: Homo sapiens, K562, 72 h. The format is functional, cell-based.
The next series is described as follows: cells. Particulars: Homo sapiens, HS5, 72 h. Type of series: ADME, cell-based.
Another series deals with MV4-11. The series is described as follows: cells. The format is functional, cell-based. To be noted: Homo sapiens, MV4-11, 72 h.
A further series has as its system U-937. The series is described as follows: cells. The format is functional, cell-based. To be noted: Homo sapiens, U-937, 72 h.

SMILES strings stand for the structures. Converted amounts (≈) assume the structure as drawn.

The kinetic solubility is the concentration staying in solution when a stock, usually in DMSO, is diluted into the medium. What is called Papp is the rate of passage across a membrane or cell layer, normalised by area and donor concentration. Higher therefore signals fast passage. A word on the IC50: it is the concentration at which inhibition is half-maximal. The low end stands for higher potency, the high end for lower potency.

Regarding `CSc1ccc(/C=C/c2nc(NCCN(C)C)c3ccccc3n2)cc1`, the kinetic solubility at 24 h was 116 µM (≈ 42.3 µg/mL) in “physchem [1]” and 119 µM (≈ 43.4 µg/mL) in the series “physchem [2]”. The compound also displayed a Papp at 5 h in “in vitro” of 5.86 ×10⁻⁶ cm/s. In addition, the IC50 turned out to be 5.21 µM with K562 and 4 µM in the series “cells”.
For the compound `CC(C)c1ccc(/C=C/c2nc(NCCN(C)C)c3cc(F)ccc3n2)cc1`, the solubility (kinetic) at 24 h in the series “physchem [1]” was 5 µM (≈ 1.89 µg/mL); in the series “physchem [2]” it was 119 µM (≈ 45 µg/mL). Also, the IC50 came to 60 nM in the series with MV4-11, 4.1 µM in the series on U-937, 4.03 µM in the series with K562 and 3.28 µM in the series “cells”. This compound had a Papp at 5 h in the series “in vitro” of 3.38 ×10⁻⁶ cm/s.
Take `CC(C)c1ccc(/C=C/c2nc(NCCN(C)C)c3cc(Cl)ccc3n2)cc1`: the values for the solubility (kinetic) at 24 h in the series “physchem [1]” and in the series “physchem [2]” were 12 µM (≈ 4.74 µg/mL) and 110 µM (≈ 43.4 µg/mL), respectively. The same compound showed an apparent permeability (Papp) at 5 h in the series “in vitro” of 0.73 ×10⁻⁶ cm/s. Further, the IC50 with K562 was determined as 2.87 µM; in the series “cells”, 3.03 µM.
Regarding `CCN(CC)CCCNc1nc(/C=C/c2ccc(OC)cc2)nc2ccc(Br)cc12`, the solubility (kinetic) at 24 h in the series “physchem [1]” and in “physchem [2]” was 96 µM (≈ 45.1 µg/mL) throughout. In the series “in vitro”, this compound gave a Papp at 5 h of 5.35 ×10⁻⁶ cm/s. The IC50 was 6.36 µM in the series with U-937, 4.03 µM in the series with K562 and 2.07 µM in the series “cells”.
With `CCN(CC)CCNc1nc(/C=C/c2ccc(S(C)(=O)=O)cc2)nc2ccc(Cl)cc12`, the solubility (kinetic) at 24 h in “physchem [1]” was 12 µM (≈ 5.51 µg/mL); in “physchem [2]” it was 115 µM (≈ 52.8 µg/mL). Besides, the IC50 with MV4-11 was found to be 40 nM; in the series on U-937, 4.95 µM; in the series on K562 it was 2.59 µM; in “cells” it was 4.09 µM. Besides, the apparent permeability coefficient (Papp) at 5 h in the series “in vitro” worked out at 0.56 ×10⁻⁶ cm/s.
On to `CN(C)CCNc1nc(/C=C/c2ccc(F)cc2)nc2ccccc12`, for which the solubility (kinetic) at 24 h in the series “physchem [1]” stood at 10 µM (≈ 3.36 µg/mL); in the series “physchem [2]”, 120 µM (≈ 40.4 µg/mL). This compound also displayed a Papp at 5 h in “in vitro” of 9.61 ×10⁻⁶ cm/s. The IC50 in the series on U-937 worked out at 10.9 µM; in the series with K562, 5.81 µM; in “cells”, 6.37 µM.
Consider `CN(C)CCCNc1nc(/C=C/c2ccc(S(C)(=O)=O)cc2)nc2ccc(Cl)cc12`, for which the solubility (kinetic) at 24 h in “physchem [1]” worked out at 23 µM (≈ 10.2 µg/mL); in the series “physchem [2]” it was 111 µM (≈ 49.4 µg/mL). For the same compound, the Papp at 5 h in the series “in vitro” stood at 0.61 ×10⁻⁶ cm/s. The results for the IC50 in the series with U-937, in the series on K562 and in the series “cells” were 9.02 µM, 4.84 µM and 4.03 µM, respectively.
With `CN(C)CCNc1nc(/C=C/c2ccc(S(C)(=O)=O)cc2)nc2ccc(Cl)cc12`, the solubility (kinetic) at 24 h in “physchem [1]” came out at 8 µM (≈ 3.45 µg/mL); in “physchem [2]” it was 112 µM (≈ 48.3 µg/mL). The Papp at 5 h in the series “in vitro” was found to be 0.36 ×10⁻⁶ cm/s. For the same compound, the figures for the IC50 with U-937, with K562 and in “cells” were 12.3 µM, 6.94 µM and 4.76 µM, respectively.
For the compound `CCN(CC)CCNc1nc(/C=C/c2ccc(C(C)C)cc2)nc2ccc(F)cc12`, the kinetic solubility at 24 h in the series “physchem [1]” was 36 µM (≈ 14.6 µg/mL); in the series “physchem [2]”, 120 µM (≈ 48.8 µg/mL). The Papp at 5 h in “in vitro” came to 1.74 ×10⁻⁶ cm/s. The values for the IC50 in the series on U-937, in the series on K562 and in the series “cells” were 4.11 µM, 2.12 µM and 3.36 µM, respectively.
In the case of `COc1cc2c(N3CCN(C(=O)Nc4ccc(OC(C)C)cc4)CC3)ncnc2cc1OCCCN1CCCCC1` [TANDUTINIB], the IC50 in the series with MV4-11 worked out at 60 nM; in the series with U-937 it was 19.8 µM; in the series with K562, 9.21 µM; in the series “cells”, 11.4 µM.
